Experimental data published in patent US20040086965A1, “Casein peptide fragments with growth-influencing activity on cell cultures” (priority 2000, published 2004).

System: IPLB-Sf-21 cells
Test: Determination of the biological activity of the peptides: cell count of serum-weaned IPLB-Sf-21 cultures after four days with peptide
Format: cell-based, Spodoptera frugiperda
Details: for peptide concentration at which the maximum growth-promoting effect was achieved: serum-free TC100 medium; for Rel. yield: IPLB-Sf-21, TC100 medium, 4 days
Procedure: IPLB-Sf-21 cells (ACC1 19, DSMZ in Braunschweig, Germany) were obtained from Dr. Victor Romanowski (Instituto de Bioquímica y Biología Molecular, Facultad de Ciencias Exactas, Universidad Nacional de la Plata, República Argentina) and maintained at 28° C. in TC-100 medium (Gibco/Life Technologies, Grand Island, N.Y., USA) containing 10% foetal calf serum (FCS, SIGMA, St. Louis, Mo., USA).
IPLB-Sf-21 cells were sown at a starting density of 5×10^4 cells in 1 ml of culture medium (TC-100+10% FCS) in the individual wells of 24-well culture plates. The plates were incubated at 27° C. for two days in a humidified chamber. During the following two days, the cultures were weaned off the serum additive by replacing the medium several times with pure TC100 medium and were then provided with the peptides or peptide fractions at various concentrations. Control cultures were cultivated in pure TC100 medium.
Four days later, the cells were harvested by being scraped off carefully. The cell count per culture well was determined by counting in a Neubauer chamber with an inverted microscope. The Neubauer chamber had two regions for counting. Each sample was counted three times in each of the two regions (six values per sample).

| Substance | peptide concentration at which the maximum growth-promoting effect was achieved (IPLB-Sf-21 cells) [µg/mL] | Rel. yield (Tripeptide concentration 0.01 μg/ml, cell yield relative to cultures without peptide and without FCS) | Rel. yield (Tripeptide concentration 0.1 μg/ml, cell yield relative to cultures without peptide and without FCS) | Rel. yield (Tripeptide concentration 1 μg/ml, cell yield relative to cultures without peptide and without FCS) | Rel. yield (Tripeptide concentration 10 μg/ml, cell yield relative to cultures without peptide and without FCS) | Rel. yield (Tripeptide concentration 100 μg/ml, cell yield relative to cultures without peptide and without FCS) | concentrations resulting in growth inhibition (very high concentrations, IPLB-Sf-21 cells) [µg/mL] | Rel. yield (Decapeptide concentration 0.01 μg/ml, cell yield relative to cultures without FCS) | Rel. yield (Decapeptide concentration 0.1 μg/ml, cell yield relative to cultures without FCS) | Rel. yield (Decapeptide concentration 1 μg/ml, cell yield relative to cultures without FCS) | Rel. yield (Decapeptide concentration 10 μg/ml, cell yield relative to cultures without FCS) | Rel. yield (Decapeptide concentration 100 μg/ml, cell yield relative to cultures without FCS) | effect of higher concentrations on cell growth (concentrations higher than 1 μg/ml, IPLB-Sf-21 cells) |
| --- | --- | --- | --- | --- | --- | --- | --- | --- | --- | --- | --- | --- | --- |
| AC-HQP-OH [Tripeptide] | 0.1 | 1.251 | 1.345 | 1.101 | 1.030 | 0.826 | > 10 | – | – | – | – | – | – |
| Ac-HQPHQPLPPT-OH [Decapeptide] | 1 | – | – | – | – | – | – | 1.051 | 1.182 | 1.272 | 1.175 | 0.866 | growth inhibition |
